Drawing on patent US8722578B2, “Spiroheterocyclic pyrrolidinedione herbicidal compositions” (Syngenta Participations AG, priority 2008, dated 2014), this text covers pest or weed control and melting point for two compounds.

Data set [1] relates to Alopecurus myosuroides (ALOMY). Briefly: Example A pre-emergence herbicidal activity, glasshouse pot test. Format: in vivo. Particulars: 480 h, rate 250 g/ha, evaluated 20 days after spraying, read-out: ALOMY pre-emergence activity (100=total damage to plant; 0=no damage to plant). The method, then: (§1) Monocotyledonous and dicotyledonous test plants are sown in standard soil in pots. After cultivation for one day (pre-emergence) or after 10 days cultivation (post-emergence) under controlled conditions in a glasshouse, the plants are sprayed with an aqueous spray solution derived from the formulation of the technical active ingredient in 0.6 ml acetone and 45 ml formulation solution containing 10.6% Emulsogen EL (Registry number 61791-12-6), 42.2% N-methylpyrrolidone, 42.2% dipropylene glycol monomethyl ether (Registry number 34590-94-8) and 0.2% X-77 (Registry number 11097-66-8). The test plants are then grown in a greenhouse under optimum conditions until, 15 days later for post-emergence and 20 days for pre-emergence, the test is evaluated (100=total damage to plant; 0=no damage to plant). Test Plants: Alopecurus myosuroides (ALOMY), Avena fatua (AVEFA), Lolium perenne (LOLPE), Setaria faberi (SETFA), Digitaria sanguinalis (DIGSA), Echinochloa crus-galli (ECHCG) Pre-Emergence Activity

Data set [2] has as its system Avena fatua (AVEFA). The data set is described as above. The conditions noted are these: 480 h, rate 250 g/ha, evaluated 20 days after spraying, read-out: AVEFA pre-emergence activity (100=total damage to plant; 0=no damage to plant). Format: in vivo. The method, then: as §1
The subject of data set [3] is Digitaria sanguinalis (DIGSA). The description is as above. Format: in vivo. Particulars: 480 h, rate 250 g/ha, evaluated 20 days after spraying, read-out: DIGSA pre-emergence activity (100=total damage to plant; 0=no damage to plant). The method, then: as §1
Data set [4] deals with Echinochloa crus-galli (ECHCG). Described as above. Particulars: 480 h, rate 250 g/ha, evaluated 20 days after spraying, read-out: ECHOG pre-emergence activity (100=total damage to plant; 0=no damage to plant). Format: in vivo. Here is the method: as §1
The test system of data set [5] is Lolium perenne (LOLPE). The data set is described as above. Format: in vivo. The conditions noted are these: 480 h, rate 250 g/ha, evaluated 20 days after spraying, read-out: LOLPE pre-emergence activity (100=total damage to plant; 0=no damage to plant). Here is the method:
as §1

Data set [6] relates to Setaria faberi (SETFA). Described as above. Format: in vivo. Particulars: 480 h, rate 250 g/ha, evaluated 20 days after spraying, read-out: SETFA pre-emergence activity (100=total damage to plant; 0=no damage to plant). The method, then: as §1
The subject of data set [7] is Alopecurus myosuroides (ALOMY). Briefly: Example A post-emergence herbicidal activity, glasshouse pot test. The conditions noted are these: 360 h, rate 125 g/ha, evaluated 15 days after spraying, read-out: ALOMY post-emergence activity (100=total damage to plant; 0=no damage to plant). Format: in vivo. Here is the method: as §1, with “Post-Emergence” for “Pre-Emergence”

The subject of data set [8] is Avena fatua (AVEFA). The data set is described as above. Format: in vivo. Particulars: 360 h, rate 125 g/ha, evaluated 15 days after spraying, read-out: AVEFA post-emergence activity (100=total damage to plant; 0=no damage to plant). The method, then: as §1, with “Post-Emergence” for “Pre-Emergence”
In data set [9] the test system is Digitaria sanguinalis (DIGSA). The description is as above. Format: in vivo. The conditions noted are these: 360 h, rate 125 g/ha, evaluated 15 days after spraying, read-out: DIGSA post-emergence activity (100=total damage to plant; 0=no damage to plant). Here is the method:
as §1, with “Post-Emergence” for “Pre-Emergence”

Data set [10] concerns Echinochloa crus-galli (ECHCG). The description is as above. Format: in vivo. Particulars: 360 h, rate 125 g/ha, evaluated 15 days after spraying, read-out: ECHOG post-emergence activity (100=total damage to plant; 0=no damage to plant). The method, then:
as §1, with “Post-Emergence” for “Pre-Emergence”

Data set [11] concerns Lolium perenne (LOLPE). The description is as above. Format: in vivo. Particulars: 360 h, rate 125 g/ha, evaluated 15 days after spraying, read-out: LOLPE post-emergence activity (100=total damage to plant; 0=no damage to plant). Here is the method:
as §1, with “Post-Emergence” for “Pre-Emergence”

For data set [12], the system named is Setaria faberi (SETFA). Described as above. Format: in vivo. Particulars: 360 h, rate 125 g/ha, evaluated 15 days after spraying, read-out: SETFA post-emergence activity (100=total damage to plant; 0=no damage to plant). Here is the method:
as §1, with “Post-Emergence” for “Pre-Emergence”

Data set [13] deals with Alopecurus myosuroides (ALOMY). Briefly: Example B pre-emergence herbicidal activity, glasshouse pot test. Format: in vivo. The conditions noted are these: 312 h, first table (headed Post-Emergence, taken as pre-emergence), rate 250 g/ha, evaluated after 13 days, read-out: ALOMY activity (100=total damage to plant; 0=no damage to plant). Summed up:
(§2)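 Damage is rated visually 13 days after spraying on a 0 (no damage) to 100 (total damage) scale. The aqueous spray is derived from an acetone/water (50:50) formulation with 0.5% Tween 20 and is applied one day after sowing for pre-emergence or after 8 days of cultivation for post-emergence.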

For data set [14], the system named is Avena fatua (AVEFA). The description is as above. Format: in vivo. Particulars: 312 h, first table (headed Post-Emergence, taken as pre-emergence), rate 250 g/ha, evaluated after 13 days, read-out: AVEFA activity (100=total damage to plant; 0=no damage to plant). An outline of the steps: as §2
For data set [15], the system named is Echinochloa crus-galli (ECHCG). The description is as above. Format: in vivo. The conditions noted are these: 312 h, first table (headed Post-Emergence, taken as pre-emergence), rate 250 g/ha, evaluated after 13 days, read-out: ECHCG activity (100=total damage to plant; 0=no damage to plant). An outline of the steps: as §2
Data set [16] concerns Setaria faberi (SETFA). Described as above. Format: in vivo. The conditions noted are these: 312 h, first table (headed Post-Emergence, taken as pre-emergence), rate 250 g/ha, evaluated after 13 days, read-out: SETFA activity (100=total damage to plant; 0=no damage to plant). Summed up:
as §2

Data set [17] deals with Alopecurus myosuroides (ALOMY). Briefly: Example B post-emergence herbicidal activity, glasshouse pot test. Format: in vivo. The conditions noted are these: 312 h, rate 250 g/ha, evaluated after 13 days, read-out: ALOMY post-emergence activity (100=total damage to plant; 0=no damage to plant). Summed up:
as §2

Data set [18] has as its system Avena fatua (AVEFA). The description is as above. Format: in vivo. Particulars: 312 h, rate 250 g/ha, evaluated after 13 days, read-out: AVEFA post-emergence activity (100=total damage to plant; 0=no damage to plant). Summed up: as §2
Data set [19] deals with Echinochloa crus-galli (ECHCG). The description is as above. Format: in vivo. The conditions noted are these: 312 h, rate 250 g/ha, evaluated after 13 days, read-out: ECHCG post-emergence activity (100=total damage to plant; 0=no damage to plant). An outline of the steps: as §2
Data set [20] deals with Setaria faberi (SETFA). Described as above. Format: in vivo. The conditions noted are these: 312 h, rate 250 g/ha, evaluated after 13 days, read-out: SETFA post-emergence activity (100=total damage to plant; 0=no damage to plant). An outline of the steps: as §2

Regarding `CCOC(=O)OC1=C(c2c(C)cc(-c3ccc(Cl)cc3)cc2C)C(=O)NC12CCN(OC)CC2` [Compound P70], the melting point (in general, the temperature, or range, at which the solid turns liquid) was in the range of 217 to 219 °C. Besides, the pest or weed control at 250 g/ha in data set [1] turned out to be 70%. The pest or weed control at 250 g/ha in the data set with Avena fatua (AVEFA) [2] was found to be 70%. Further, the pest or weed control at 250 g/ha in data set [3] stood at 100%. In addition, in [4], the pest or weed control at 250 g/ha was 100%. For the same compound, the pest or weed control at 250 g/ha in the data set with Lolium perenne (LOLPE) [5] is 30%. Further, the pest or weed control at 250 g/ha in the data set on Setaria faberi (SETFA) [6] worked out at 100%. In addition, the pest or weed control at 125 g/ha in data set [7] worked out at 0%. Moreover, the pest or weed control at 125 g/ha in the data set with Avena fatua (AVEFA) [8] came out at 10%. The pest or weed control at 125 g/ha in data set [9] is 100%. The pest or weed control at 125 g/ha in data set [10] was found to be 100%. For the same compound, in the data set with Lolium perenne (LOLPE) [11], the pest or weed control at 125 g/ha is 0%. Moreover, in the data set with Setaria faberi (SETFA) [12], the pest or weed control at 125 g/ha came out at 90%. The pest or weed control at 250 g/ha in data set [13] turned out to be 90%. Also, the pest or weed control at 250 g/ha in the data set on Avena fatua (AVEFA) [14] is 90%. Besides, the pest or weed control at 250 g/ha in [15] stood at 100%. For the same compound, the pest or weed control at 250 g/ha with Setaria faberi (SETFA) [16] was 100%. The pest or weed control at 250 g/ha in [17] was 100%. In addition, in the data set with Avena fatua (AVEFA) [18], the pest or weed control at 250 g/ha was determined as 100%. The pest or weed control at 250 g/ha in [19] is 100%. Also, the pest or weed control at 250 g/ha with Setaria faberi (SETFA) [20] is 100%.
`CON1CCC2(CC1)NC(=O)C(c1c(C)cc(-c3ccc(Cl)cc3)cc1C)C2=O` (stereo not drawn) [Compound T23] gave a melting point of 255 to 257 °C. In data set [1], the pest or weed control at 250 g/ha worked out at 40%. Besides, the pest or weed control at 250 g/ha with Avena fatua (AVEFA) [2] was determined as 50%. Moreover, the pest or weed control at 250 g/ha in [3] came to 100%. The pest or weed control at 250 g/ha in [4] is 100%. Besides, in the data set on Lolium perenne (LOLPE) [5], the pest or weed control at 250 g/ha was 40%. The pest or weed control at 250 g/ha in the data set with Setaria faberi (SETFA) [6] was determined as 100%. The pest or weed control at 125 g/ha in data set [7] amounted to 100%. Besides, the pest or weed control at 125 g/ha with Avena fatua (AVEFA) [8] worked out at 100%. Besides, in [9], the pest or weed control at 125 g/ha turned out to be 100%. Also, the pest or weed control at 125 g/ha in data set [10] came to 100%. Moreover, in the data set on Lolium perenne (LOLPE) [11], the pest or weed control at 125 g/ha was found to be 80%. The pest or weed control at 125 g/ha with Setaria faberi (SETFA) [12] is 100%. In addition, the pest or weed control at 250 g/ha in [13] is 70%. Further, the pest or weed control at 250 g/ha in the data set with Avena fatua (AVEFA) [14] turned out to be 90%. Besides, in data set [15], the pest or weed control at 250 g/ha was found to be 90%. The pest or weed control at 250 g/ha in the data set with Setaria faberi (SETFA) [16] stood at 100%. In data set [17], the pest or weed control at 250 g/ha came out at 100%. The pest or weed control at 250 g/ha with Avena fatua (AVEFA) [18] is 100%. Moreover, the pest or weed control at 250 g/ha in [19] was determined as 100%. Also, the pest or weed control at 250 g/ha in the data set with Setaria faberi (SETFA) [20] was found to be 100%.
